system: not listed separately; experiment: Acute toxicity in the hens fertile egg screening test (HEST).; parameters: species or system Gallus gallus; conditions: chicken

| SMILES | LD50 [mg/kg] |
| --- | --- |
| COc1c2c(c(O)c3c1C(=O)c1c(cc(O)c(C)c1O)C3=O)-c1c(cc(/C=N/NC(=S)NC3CCCCC3)c(C(=O)O)c1O)CC2 [MHL CYCLOHEXYLTHIOSEMICARBAZONE] | > 50 |

target: T1, Steryl-sulfatase (Homo sapiens, UniProt P08842); experiment: Inhibitory activity againist Estrone sulfatase from MCF-7 cells ([…]); format: cell-based, MCF7; conditions: not given
T1 sequence (P08842 whole entry): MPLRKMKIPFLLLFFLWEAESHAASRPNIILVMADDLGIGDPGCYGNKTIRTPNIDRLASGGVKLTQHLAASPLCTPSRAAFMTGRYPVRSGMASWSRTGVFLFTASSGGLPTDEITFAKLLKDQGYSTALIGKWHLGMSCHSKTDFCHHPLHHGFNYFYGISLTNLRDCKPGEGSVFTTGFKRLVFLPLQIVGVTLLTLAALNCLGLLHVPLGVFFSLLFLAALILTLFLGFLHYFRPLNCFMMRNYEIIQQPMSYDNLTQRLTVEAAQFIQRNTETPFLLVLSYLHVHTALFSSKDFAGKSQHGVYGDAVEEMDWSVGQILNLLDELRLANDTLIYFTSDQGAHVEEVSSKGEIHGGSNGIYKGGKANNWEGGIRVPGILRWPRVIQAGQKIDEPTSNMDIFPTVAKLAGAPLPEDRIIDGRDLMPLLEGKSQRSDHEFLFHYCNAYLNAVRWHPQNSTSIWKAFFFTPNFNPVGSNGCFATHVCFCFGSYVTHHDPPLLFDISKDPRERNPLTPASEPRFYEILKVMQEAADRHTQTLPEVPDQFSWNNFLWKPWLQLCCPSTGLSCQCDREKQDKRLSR

| IC50 [µM] | SMILES |
| --- | --- |
| 18 | CCC(CC)/N=C(\S)N/N=C/c1cc2c(c(O)c1C(=O)O)-c1c(O)c3c(c(OC)c1CC2)C(=O)c1c(cc(O)c(C)c1O)C3=O |
| 12 | COc1c2c(c(O)c3c1C(=O)c1c(cc(O)c(C)c1O)C3=O)-c1c(cc(/C=N/N=C(\S)Nc3ccc(C)cc3)c(C(=O)O)c1O)CC2 |
| 6 | CCCC/N=C(\S)N/N=C/c1cc2c(c(O)c1C(=O)O)-c1c(O)c3c(c(OC)c1CC2)C(=O)c1c(cc(O)c(C)c1O)C3=O |
| > 100 | COc1c2c(c(O)c3c1C(=O)c1c(cc(O)c(C)c1O)C3=O)-c1c(cc(/C=N/NC(=O)Nc3ccccc3)c(C(=O)O)c1O)CC2 |
| 13 | CCCCC/N=C(\S)N/N=C/c1cc2c(c(O)c1C(=O)O)-c1c(O)c3c(c(OC)c1CC2)C(=O)c1c(cc(O)c(C)c1O)C3=O |
| 8 | CCCCCC/N=C(\S)N/N=C/c1cc2c(c(O)c1C(=O)O)-c1c(O)c3c(c(OC)c1CC2)C(=O)c1c(cc(O)c(C)c1O)C3=O |
| 6 | COc1c2c(c(O)c3c1C(=O)c1c(cc(O)c(C)c1O)C3=O)-c1c(cc(/C=N/N=C(\S)NN3CCCCC3)c(C(=O)O)c1O)CC2 |
| 4.8 | COc1c2c(c(O)c3c1C(=O)c1c(cc(O)c(C)c1O)C3=O)-c1c(cc(/C=N/N=C(\S)Nc3ccccc3)c(C(=O)O)c1O)CC2 |
| 11 | COc1c2c(c(O)c3c1C(=O)c1c(cc(O)c(C)c1O)C3=O)-c1c(cc(/C=N/N=C(\S)NCC(C)C)c(C(=O)O)c1O)CC2 |
| 7 | COc1c2c(c(O)c3c1C(=O)c1c(cc(O)c(C)c1O)C3=O)-c1c(cc(/C=N/NC(=O)NC3CCCCC3)c(C(=O)O)c1O)CC2 |
| 3.2 | COc1c2c(c(O)c3c1C(=O)c1c(cc(O)c(C)c1O)C3=O)-c1c(cc(/C=N/N=C(\S)NC3CCCC3)c(C(=O)O)c1O)CC2 |
| > 100 | COc1c2c(c(O)c3c1C(=O)c1c(cc(O)c(C)c1O)C3=O)-c1c(cc(/C=N/N=C(/N)S)c(C(=O)O)c1O)CC2 |
| 15 | COc1c2c(c(O)c3c1C(=O)c1c(cc(O)c(C)c1O)C3=O)-c1c(cc(/C=N/N=C(\S)NC3CCCCCCC3)c(C(=O)O)c1O)CC2 |
| > 100 | COc1c2c(c(O)c3c1C(=O)c1c(cc(O)c(C)c1O)C3=O)-c1c(cc(/C=N/N=C(\S)Oc3ccccc3)c(C(=O)O)c1O)CC2 |
| 1.8 | COc1c2c(c(O)c3c1C(=O)c1c(cc(O)c(C)c1O)C3=O)-c1c(cc(/C=N/N=C(\S)NC3CCCCCC3)c(C(=O)O)c1O)CC2 |
| 24 | COc1c2c(c(O)c3c1C(=O)c1c(cc(O)c(C)c1O)C3=O)-c1c(cc(/C=N/N=C(\S)NC(C)C)c(C(=O)O)c1O)CC2 |
| 23 | COc1ccc(N/C(S)=N/N=C/c2cc3c(c(O)c2C(=O)O)-c2c(O)c4c(c(OC)c2CC3)C(=O)c2c(cc(O)c(C)c2O)C4=O)cc1 |
| > 100 | COc1c2c(c(O)c3c1C(=O)c1c(cc(O)c(C)c1O)C3=O)-c1c(cc(/C=N/N=C(\S)Nc3ccc(Cl)cc3)c(C(=O)O)c1O)CC2 |
| 22 | COc1c2c(c(O)c3c1C(=O)c1c(cc(O)c(C)c1O)C3=O)-c1c(cc(/C=N/N=C(\S)NC3CC3)c(C(=O)O)c1O)CC2 |
| 29 | CN/C(S)=N/N=C/c1cc2c(c(O)c1C(=O)O)-c1c(O)c3c(c(OC)c1CC2)C(=O)c1c(cc(O)c(C)c1O)C3=O |
| 19 | CCCCCCCCC/N=C(\S)N/N=C/c1cc2c(c(O)c1C(=O)O)-c1c(O)c3c(c(OC)c1CC2)C(=O)c1c(cc(O)c(C)c1O)C3=O |
| 9 | CCCCCCC/N=C(\S)N/N=C/c1cc2c(c(O)c1C(=O)O)-c1c(O)c3c(c(OC)c1CC2)C(=O)c1c(cc(O)c(C)c1O)C3=O |
| 1.4 | COc1c2c(c(O)c3c1C(=O)c1c(cc(O)c(C)c1O)C3=O)-c1c(cc(/C=N/N=C(\S)N(C)C3CCCCC3)c(C(=O)O)c1O)CC2 |
| 20 | CCC/N=C(\S)N/N=C/c1cc2c(c(O)c1C(=O)O)-c1c(O)c3c(c(OC)c1CC2)C(=O)c1c(cc(O)c(C)c1O)C3=O |
| 50 | CCCCCCCCCCCC/N=C(\S)N/N=C/c1cc2c(c(O)c1C(=O)O)-c1c(O)c3c(c(OC)c1CC2)C(=O)c1c(cc(O)c(C)c1O)C3=O |
| 2.6 | Cc1cc(=O)oc2cc(OS(N)(=O)=O)ccc12 |
| 25 | COc1c2c(c(O)c3c1C(=O)c1c(cc(O)c(C)c1O)C3=O)-c1c(cc(/C=N/N=C(\S)NC(C)(C)C)c(C(=O)O)c1O)CC2 |
| 16 | CC/N=C(\S)N/N=C/c1cc2c(c(O)c1C(=O)O)-c1c(O)c3c(c(OC)c1CC2)C(=O)c1c(cc(O)c(C)c1O)C3=O |
| 8 | COc1c2c(c(O)c3c1C(=O)c1c(cc(O)c(C)c1O)C3=O)-c1c(cc(/C=N/N=C(\S)N3CCCCC3)c(C(=O)O)c1O)CC2 |
| 4 | COc1c2c(c(O)c3c1C(=O)c1c(cc(O)c(C)c1O)C3=O)-c1c(cc(/C=N/N=C(\S)NC3CCC(C)CC3)c(C(=O)O)c1O)CC2 (centres undefined) |

| SMILES | IC50 [µM] |
| --- | --- |
| COc1c2c(c(O)c3c1C(=O)c1c(cc(O)c(C)c1O)C3=O)-c1c(cc(/C=N/NC(=S)NC3CCCCC3)c(C(=O)O)c1O)CC2 [MHL CYCLOHEXYLTHIOSEMICARBAZONE] | 0.46 |
| COc1c2c(c(O)c3c1C(=O)c1c(cc(O)c(C)c1O)C3=O)-c1c(cc(/C=N/NC(=O)Oc3ccccc3)c(C(=O)O)c1O)CC2 | > 100 |
| COc1c2c(c(O)c3c1C(=O)c1c(cc(O)c(C)c1O)C3=O)-c1c(cc3c(c1O)C(=O)OC3O)CC2 (centres undefined) | 41 |
